# Target: human PAD4 (Homo sapiens (Human), UniProt Q9UM07)
# Assay: In Vitro PAD4 BAEE Biochemical Assay
# Settings: human PAD4, BAEE substrate; 5 nM PAD4, 2 mM calcium chloride, 3 mM BAEE; geometric mean of multiple experiments
# Protocol: The PCR product was ligated into linearized pET-SUMO vector (Invitrogen, Carlsbad, CA), which is part of the Champion™ pET SUMO Protein Expression System. After sequence verification for the correct orientation, the pET-SUMO-hPAD4 expression plasmid was transformed into BL21(DE3) cells.
# E. Coli BL21(DE3) cells were inoculated in LB medium with kanamycin at 37° C. until A600 nm reached about 0.5. Protein expression was induced by addition of 0.5 mM IPTG (final) and continued overnight at 16° C. at 220 rpm.
# Cells were harvested by centrifugation at 5000 rpm for 10 minutes at 4° C. The pellet was resuspended in 300 ml lysis buffer (20 mM Tris-HCl, pH 8.0, 1 mM EDTA, 500 mM NaCl, 1 mM (tris(2-carboxyethyl)phosphine) (TCEP), 10% glycerol, and 1% Triton X100 and EDTA free protease inhibitor) and lysed by 3× passage through a microfluidizer (Microfluidics, Newton, MA) at 18,000 psi. The cell lysate was clarified by centrifugation at 30,000 rpm for 60 minutes at 4° C. The supernatant was applied to a 5 ml Ni-HP (GE HealthCare Cat #17524701) column preequilibrated in Ni-A buffer (20 mM Tris-HCl, pH 8.0, 20 mM Imidazole, 1 mM TCEP, 10% glycerol, and 400 mM NaCl). Bound protein was eluted with a 0-100% linear gradient of 100 mL Ni-B buffer (Ni A buffer+0.5 M Imidazole).
# The His-Sumo tag was cleaved using sumo protease (Thermo Fisher Cat #: 12588018) while dialyzing in buffer (20 mM Tris-HCl, pH 8.0, 1 mM EDTA, 500 mM NaCl, 1 mM TCEP, 10% glycerol). The protein was then reloaded onto a Ni-HP column for a reverse purification step and recovered in flow through fraction. The protein with His-Sumo tag removed was then polished using a 16/60 Superdex-200 gel filtration column with gel filtration buffer (20 mM Tris pH 8.0, NaCl 400 mM and 1 mM TCEP). The fractions containing the protein were pulled and frozen at −80° C.
# In Vitro PAD4 BAEE Biochemical Assay
# The enzymatic activity of human PAD4 was monitored in a biochemical assay in the presence or absence of compounds using the small peptidyl arginine mimic BAEE (Nα-Benzoyl-L-arginine ethyl ester hydrochloride) as substrate. PAD4 activity led to deimination of BAEE and release of ammonia. Levels of ammonia were monitored by using an amine coupling reaction and were indicative of PAD4 enzymatic activity.
# One hundred nanoliters of test compounds dissolved in DMSO at various concentrations were dispensed into a 384-well black OptiPlate using a Labcyte Echo instrument. Ten microliters of a solution of recombinant PAD4 and calcium chloride diluted in PAD4 assay buffer (50 mM MOPS [3-(N-morpholino) propanesulfonic acid], pH 7.6; 50 mM sodium chloride; 0.05% Tween-20; 2 mM dithiothreitol) was added to the compound-containing plate and was incubated for 30 minutes at 25° C. Ten microliters of a solution of BAEE (Sigma-Aldrich #B4500) diluted in PAD4 assay buffer was then added to start the reaction. Final concentrations were 5 nM PAD4, 2 mM calcium chloride, and 3 mM BAEE. The reaction mixture was incubated at 25° C. for 2 hours and was stopped with the addition of 10 microliters of a solution of 75 mM EDTA (Ethylenediaminetetraacetic acid) in PAD4 assay buffer. Thirty microliters of detection solution (5 mM o-phthalaldehyde, 50 mM MOPS [3-(N-morpholino) propanesulfonic acid], pH 7.6; 50 mM sodium chloride; 0.05% Tween-20; 5 mM dithiothreitol) was then added and the reaction was incubated for 1 hour at 25° C. The level of fluorescent thiol-substituted isoindole resulting from the reaction of ammonia, o-phthalaldehyde, and dithiothreitol was measured on an Envision plate reader (PerkinElmer) with 405 nm excitation and 535 nm emission.
# human PAD4, sequence (Q9UM07 2-663): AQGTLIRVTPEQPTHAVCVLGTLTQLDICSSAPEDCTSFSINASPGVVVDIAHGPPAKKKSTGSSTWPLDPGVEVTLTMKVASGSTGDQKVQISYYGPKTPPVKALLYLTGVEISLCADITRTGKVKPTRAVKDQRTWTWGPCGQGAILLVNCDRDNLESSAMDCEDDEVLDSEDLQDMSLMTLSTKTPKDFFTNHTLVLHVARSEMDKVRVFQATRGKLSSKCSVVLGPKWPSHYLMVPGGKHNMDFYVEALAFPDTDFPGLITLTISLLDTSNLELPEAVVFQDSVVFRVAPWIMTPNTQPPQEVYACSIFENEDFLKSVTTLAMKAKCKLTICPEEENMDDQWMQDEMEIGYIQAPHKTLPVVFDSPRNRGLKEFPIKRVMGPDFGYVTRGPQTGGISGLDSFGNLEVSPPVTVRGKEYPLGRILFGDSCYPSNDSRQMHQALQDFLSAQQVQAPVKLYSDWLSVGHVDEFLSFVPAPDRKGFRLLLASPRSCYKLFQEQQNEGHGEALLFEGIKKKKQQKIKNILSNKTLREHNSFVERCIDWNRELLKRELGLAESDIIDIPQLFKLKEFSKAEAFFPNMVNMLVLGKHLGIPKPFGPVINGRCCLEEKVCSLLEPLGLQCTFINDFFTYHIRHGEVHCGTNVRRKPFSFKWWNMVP
row,IC50,SMILES
1,129 nM,"COc1cc(C(=O)N2C[C@H](N)CCN2C)cc2nc(-c3cc4ccc([C@@H](C)NC(=O)c5ccccc5C(F)(F)F)nc4n3CC3CC3)n(C)c12 [Example 196, N-((R)-1-(2-(5-((R)-5-amino-2-methylhexahydropyridazine-1-carbonyl)-7-methoxy-1-methyl-1H-benzo[d]imidazol-2-yl)-1-(cyclopropylmethyl)-1H-pyrrolo[2,3-b]pyridin-6-yl)ethyl)-2-(trifluoromethyl)benzamide]"
2,105 nM,"COc1cc(C(=O)N2C[C@H](N)CCN2C)cc2nc(-c3cc4ccc([C@@H](C)NC(=O)C56CC(Cl)(C5)C6)nc4n3CC3CC3)n(C)c12 [Example 186, N—((R)-1-(2-(5-((R)-5-amino-2-methylhexahydropyridazine-1-carbonyl)-7-methoxy-1-methyl-1H-benzo[d]imidazol-2-yl)-1-(cyclopropylmethyl)-1H-pyrrolo[2,3-b]pyridin-6-yl)ethyl)-3-chlorobicyclo[1.1.1]pentane-1-carboxamide]"
3,28.8 nM,"COc1cc(C(=O)N2C[C@H](N)CCN2C)cc2nc(-c3cc4ccc([C@@H](C)NC(=O)c5ncccn5)nc4n3CC3CC3)n(C)c12 [Example 180, N-((R)-1-(2-(5-((R)-5-amino-2-methylhexahydropyridazine-1-carbonyl)-7-methoxy-1-methyl-1H-benzo[d]imidazol-2-yl)-1-(cyclopropylmethyl)-1H-pyrrolo[2,3-b]pyridin-6-yl)ethyl)pyrimidine-2-carboxamide]"
4,180 nM,"COc1cc(C(=O)N2C[C@H](N)CCN2C)cc2nc(-c3cc4ccc([C@@H](C)NC(=O)c5ccccc5C(F)F)nc4n3CC3CC3)n(C)c12 [Example 166, N-((R)-1-(2-(5-((R)-5-amino-2-methylhexahydropyridazine-1-carbonyl)-7-methoxy-1-methyl-1H-benzo[d]imidazol-2-yl)-1-(cyclopropylmethyl)-1H-pyrrolo[2,3-b]pyridin-6-yl)ethyl)-2-(difluoromethyl)benzamide]"
5,227 nM,"COc1cc(C(=O)N2C[C@H](N)CCN2C)cc2nc(-c3cc4ccc(C(C)(C)O)nc4n3CC3CC3)n(C)c12 [Example 249, (R)-(5-amino-2-methyltetrahydropyridazin-1(2H)-yl)(2-(1-(cyclopropylmethyl)-6-(2-hydroxypropan-2-yl)-1H-pyrrolo[2,3-b]pyridin-2-yl)-7-methoxy-1-methyl-1H-benzo[d]imidazol-5-yl)methanone]"
6,100 nM,"COc1cc(C(=O)N2C[C@H](N)CCN2C)cc2nc(-c3cc4ccc([C@@H](C)NC(=O)c5ccc(C)nc5C)nc4n3CC3CC3)n(C)c12 [Example 214, N-((R)-1-(2-(5-((R)-5-amino-2-methylhexahydropyridazine-1-carbonyl)-7-methoxy-1-methyl-1H-benzo[d]imidazol-2-yl)-1-(cyclopropylmethyl)-1H-pyrrolo[2,3-b]pyridin-6-yl)ethyl)-2,6-dimethylnicotinamide]"
7,9340 nM,"COc1cc(C(=O)N2CCC[C@@H](N)C2)cc2nc(-c3cc4ccc(NC(C)(C)C)nc4n3CC3CC3)n(C)c12 [Example 278, (R)-(3-aminopiperidin-1-yl)(2-(6-(tert-butylamino)-1-(cyclopropylmethyl)-1H-pyrrolo[2,3-b]pyridin-2-yl)-7-methoxy-1-methyl-1H-benzo[d]imidazol-5-yl)methanone]"

# Continued, compound first:
row,SMILES,IC50
1,"COC(=O)N(C)c1ccc2cc(-c3nc4cc(C(=O)N5[C@H]6CC[C@@H]5[C@H](N)C6)cc(OC)c4n3C)n(CC3CC3)c2c1 [Example 114, methyl (2-(5-((1R,2R,4S)-2-amino-7-azabicyclo[2.2.1]heptane-7-carbonyl)-7-methoxy-1-methyl-1H-benzo[d]imidazol-2-yl)-1-(cyclopropylmethyl)-1H-indol-6-yl)(methyl)carbamate]",34.5 nM
2,"COc1cc(C(=O)N2[C@H]3CC[C@@H]2[C@H](N)C3)cc2nc(-c3cc4ccc([C@@H](C)NC(=O)c5cnn(C)c5)cc4n3CC3CC3)n(C)c12 [Example 135, N-((R)-1-(2-(5-((1R,2R,4S)-2-amino-7-azabicyclo[2.2.1]heptane-7-carbonyl)-7-methoxy-1-methyl-1H-benzo[d]imidazol-2-yl)-1-(cyclopropylmethyl)-1H-indol-6-yl)ethyl)-1-methyl-1H-pyrazole-4-carboxamide]",13 nM
3,"COc1cc(C(=O)N2CCC[C@@H](N)C2)cc2nc(-c3cc4ccc(N(CC5CC5)S(C)(=O)=O)nc4n3CC3CC3)n(C)c12 [Example 20, (R)-N-(2-(5-(3-aminopiperidine-1-carbonyl)-7-methoxy-1-methyl-1H-benzo[d]imidazol-2-yl)-1-(cyclopropylmethyl)-1H-pyrrolo [2,3-b]pyridin-6-yl)-N-(cyclopropylmethyl) methanesulfonamide]",50000 nM
4,"COc1cc(C(=O)N2CCC[C@@H](N)C2)cc2nc(-c3cc4ccc(N5[C@@H](C)CCCS5(=O)=O)nc4n3CC3CC3)n(C3CC3)c12 [Example 101, ((R)-3-aminopiperidin-1-yl)(1-cyclopropyl-2-(1-(cyclopropylmethyl)-6-((S)-3-methyl-1,1-dioxido-1,2-thiazinan-2-yl)-1H-pyrrolo[2,3-b]pyridin-2-yl)-7-methoxy-1H-benzo[d]imidazol-5-yl)methanone]",43.4 nM
5,"COc1cc(C(=O)N2C[C@H](N)CC[C@@H]2C)cc2nc(-c3cc4ccc(-c5c(C)ccnc5-c5ccccc5)nc4n3CC3CC3)n(C)c12 [Example 276, ((2S,5R)-5-amino-2-methylpiperidin-1-yl)(2-(1-(cyclopropylmethyl)-6-(4-methyl-2-phenylpyridin-3-yl)-1H-pyrrolo[2,3-b]pyridin-2-yl)-7-methoxy-1-methyl-1H-benzo[d]imidazol-5-yl)methanone]",423 nM
6,"[2H][C@]1(N)CCCN(C(=O)c2cc(OC)c3c(c2)nc(-c2cc4ccc(N(C(F)F)S(C)(=O)=O)nc4n2CC2CC2)n3C)C1 [Example 46, (S)-N-(2-(5-(3-aminopiperidine-1-carbonyl-3-d)-7-methoxy-1-methyl-1H-benzo[d]imidazol-2-yl)-1-(cyclopropylmethyl)-1H-pyrrolo[2,3-b]pyridin-6-yl)-N-(difluoromethyl) methanesulfonamide]",1160 nM
7,"COc1cc(C(=O)N2[C@H]3CC[C@@H]2[C@H](N)C3)cc2nc(-c3cc4ccc([C@@H](C)NC(=O)c5cnn(C)c5)nc4n3CC3CC3)n(C)c12 [Example 206, N-((R)-1-(2-(5-((1R,2R,4S)-2-amino-7-azabicyclo[2.2.1]heptane-7-carbonyl)-7-methoxy-1-methyl-1H-benzo[d]imidazol-2-yl)-1-(cyclopropylmethyl)-1H-pyrrolo[2,3-b]pyridin-6-yl)ethyl)-1-methyl-1H-pyrazole-4-carboxamide]",45.5 nM

# Same assay, conditions: recombinant PAD4 5 nM, 2 mM calcium chloride, 3 mM BAEE substrate; geometric mean of multiple experiments
row,IC50,SMILES
1,101 nM,"COc1cc(C(=O)N2C[C@H](N)[C@@H]3CC[C@H]2C3)cc2nc(-c3cc4ccc([C@@H](C)NC(=O)C5(C)CC(F)(F)C5)nc4n3CC3CC3)n(C)c12 [Example 328, N-((R)-1-(2-(5-((1S,4R,5R)-4-amino-2-azabicyclo[3.2.1]octane-2-carbonyl)-7-methoxy-1-methyl-1H-benzo[d]imidazol-2-yl)-1-(cyclopropylmethyl)-1H-pyrrolo[2,3-b]pyridin-6-yl)ethyl)-3,3-difluoro-1-methylcyclobutane-1-carboxamide]"
